Assay results taken from ChEMBL document CHEMBL1921689, “Synthesis and biological profile of new 1,2,3,4-tetrahydroisoquinolines as selective carbonic anhydrase inhibitors” (Bioorg Med Chem, 2011).

Biological target: Carbonic anhydrase 9 (Homo sapiens, UniProt Q16790)
Assay: Inhibition of human CA9 catalytic domain preincubated for 15 mins by stopped flow CO2 hydration assay

| SMILES | Ki [nM] |
| --- | --- |
| COc1ccc2c(c1)CCN(S(N)(=O)=O)C2c1ccccc1 (racemic) | 78 |
| COc1ccc2c(c1)CCN(S(N)(=O)=O)C2c1ccc(Br)cc1 (racemic) | 60.7 |
| COc1ccc2c(c1)CCN(S(N)(=O)=O)C2c1cccc(N)c1 (racemic) | 18 |
| COc1ccc2c(c1)CCN(S(N)(=O)=O)C2c1ccc(F)cc1 (racemic) | 31 |

The next compounds have a lower Ki than those just listed; values first:

| Ki [nM] | SMILES |
| --- | --- |
| 16 | COc1ccc2c(c1)CCN(S(N)(=O)=O)C2c1cccc([N+](=O)[O-])c1 (racemic) |
| 12 | COc1ccc2c(c1)CCN(S(N)(=O)=O)C2c1ccc(N)cc1 (racemic) |
| 7.5 | COc1ccc2c(c1)CCN(S(N)(=O)=O)C2c1ccc(C)cc1 (racemic) |
| 7 | COc1ccc2c(c1)CCN(S(N)(=O)=O)C2c1ccc(C#N)cc1 (racemic) |
| 5 | COc1ccc2c(c1)CCN(S(N)(=O)=O)C2c1ccc([N+](=O)[O-])cc1 (racemic) |
